{"source": "patent US20180200257A1", "about": "“METHODS FOR THE TREATMENT OF INFLAMMATORY DISORDERS” (Galapagos NV, priority 2015, published 2018)", "system": "subjects with moderately to severely active RA who have an inadequate response to methotrexate (MTX)", "assay": "Study 1 (add-on to MTX) - Alanine Aminotransferase (ALT) levels", "type": "in vivo, human", "conditions": "24 weeks results", "experimental": "Double-blind, placebo-controlled add on study in subjects with moderately to severely active RA who have an inadequate response to methotrexate (MTX) (oral or parenteral).\n595 subjects randomized to one of 6 dose regimens of Compound 1 (dosed as [Compound 1:HCl:3H2O]) (3 dose levels administered either once or twice daily) or placebo on top of each subject's stable dose of MTX.\nCompound 1 (dosed as [Compound 1:HCl:3H2O]) is dosed for twelve weeks once daily (q.d.) (50 mg, 100 mg or 200 mg) or twice daily (b.i.d.) (25 mg, 50 mg or 100 mg); or placebo.\nAt Week 12, the subjects on placebo who have not achieved 20% improvement in swollen joint count (SJC66) and tender joint count (TJC68) are re-randomized automatically to receive Compound 1 (dosed as a [Compound 1:HCl:3H2O]) either at 100 mg q.d. or 50 mg b.i.d. doses in a blinded fashion; subjects on 50 mg q.d. who have not achieved 20% improvement in SJC66 and TJC68 will be assigned to 100 mg q.d. and subjects on 25 mg b.i.d. that have not achieved a 20% improvement in SJC66 and TJC68 will be assigned to 50 mg b.i.d. Subjects who switch treatment at week 12 are handled as if they discontinued at week 12 for the purpose of statistical analysis, whereas subjects in the other groups will maintain their randomized treatment until Week 24.\nALT levels determination is available at Quest Diagnostics, Clinical Trials, Quest House, 125-135 Staines Road, Hounslow, Middlesex, TW3 3JB, United Kingdom under Catalogue n#84460.\nALT catalyzes the exchange of the amino group of alanine with the oxogroup of 2-ketoglutarate to form pyruvate and glutamate. In the presence of lactic dehydrogenase, pyruvate reacts with NADH to form NAD+, measured spectrophotometrically. Guidelines for the ALT value have been issued by the association for Clinical Biochemistry and Laboratory Medicine, 130-132 Tooley Street LONDON SE1 2TU, united Kingdom, wherein the ALT value should be below 34 U/l in Female and below 52 U/L in male.", "key": {"[1]": {"conditions": "continued 100 mg b.i.d., week 1"}, "[2]": {"conditions": "continued 100 mg b.i.d., week 2"}, "[3]": {"conditions": "continued 100 mg b.i.d., week 4"}, "[4]": {"conditions": "continued 100 mg b.i.d., week 8"}, "[5]": {"conditions": "continued 100 mg b.i.d., week 12"}, "[6]": {"conditions": "continued 100 mg b.i.d., week 16"}, "[7]": {"conditions": "continued 100 mg b.i.d., week 20"}, "[8]": {"conditions": "continued 100 mg b.i.d., week 24"}}, "data": [{"molecule": "O=C(Nc1nc2cccc(-c3ccc(CN4CCS(=O)(=O)CC4)cc3)n2n1)C1CC1", "note": "[Compound 1, cyclopropanecarboxylic acid {5-[4-(1,1-dioxo-thiomorpholin-4-ylmethyl)-phenyl]-[1,2,4]triazolo[1,5-a]pyridin-2-yl}-amide]", "values": [{"measurement": "Study 1 - ALT Mean CFB", "setting": "continued 50 mg q.d., week 12", "value": 0.5, "unit": "IU/L"}, {"measurement": "Study 1 - ALT Mean percentage CFB", "setting": "continued 50 mg q.d., week 12", "value": 13.8, "unit": "%"}, {"measurement": "Study 1 - ALT Mean CFB", "setting": "continued 50 mg q.d., week 16", "value": 1.1, "unit": "IU/L"}, {"measurement": "Study 1 - ALT Mean percentage CFB", "setting": "continued 50 mg q.d., week 16", "value": 18.1, "unit": "%"}, {"measurement": "Study 1 - ALT Mean CFB", "setting": "continued 50 mg q.d., week 20", "value": 2.2, "unit": "IU/L"}, {"measurement": "Study 1 - ALT Mean percentage CFB", "setting": "continued 50 mg q.d., week 20", "value": 22.1, "unit": "%"}, {"measurement": "Study 1 - ALT Mean CFB", "setting": "continued 50 mg q.d., week 24", "value": 1.7, "unit": "IU/L"}, {"measurement": "Study 1 - ALT Mean percentage CFB", "setting": "continued 50 mg q.d., week 24", "value": 19.4, "unit": "%"}, {"measurement": "Study 1 - ALT Mean CFB", "setting": "[1]", "value": 0.5, "unit": "IU/L"}, {"measurement": "Study 1 - ALT Mean percentage CFB", "setting": "[1]", "value": 8.8, "unit": "%"}, {"measurement": "Study 1 - ALT Mean CFB", "setting": "[2]", "value": 0.8, "unit": "IU/L"}, {"measurement": "Study 1 - ALT Mean percentage CFB", "setting": "[2]", "value": 10.4, "unit": "%"}, {"measurement": "Study 1 - ALT Mean CFB", "setting": "[3]", "value": 0.8, "unit": "IU/L"}, {"measurement": "Study 1 - ALT Mean percentage CFB", "setting": "[3]", "value": 20.4, "unit": "%"}, {"measurement": "Study 1 - ALT Mean CFB", "setting": "[4]", "value": 0.6, "unit": "IU/L"}, {"measurement": "Study 1 - ALT Mean percentage CFB", "setting": "[4]", "value": 24.5, "unit": "%"}, {"measurement": "Study 1 - ALT Mean CFB", "setting": "[5]", "value": 1.7, "unit": "IU/L"}, {"measurement": "Study 1 - ALT Mean percentage CFB", "setting": "[5]", "value": 26.0, "unit": "%"}, {"measurement": "Study 1 - ALT Mean CFB", "setting": "[6]", "value": 3.2, "unit": "IU/L"}, {"measurement": "Study 1 - ALT Mean percentage CFB", "setting": "[6]", "value": 32.4, "unit": "%"}, {"measurement": "Study 1 - ALT Mean CFB", "setting": "[7]", "value": 2.8, "unit": "IU/L"}, {"measurement": "Study 1 - ALT Mean percentage CFB", "setting": "[7]", "value": 34.2, "unit": "%"}, {"measurement": "Study 1 - ALT Mean CFB", "setting": "[8]", "value": 4.0, "unit": "IU/L"}, {"measurement": "Study 1 - ALT Mean percentage CFB", "setting": "[8]", "value": 47.8, "unit": "%"}, {"measurement": "Study 1 - ALT Mean CFB", "setting": "continued 100 mg q.d., week 1", "value": 3.0, "unit": "IU/L"}, {"measurement": "Study 1 - ALT Mean percentage CFB", "setting": "continued 100 mg q.d., week 1", "value": 13.6, "unit": "%"}, {"measurement": "Study 1 - ALT Mean CFB", "setting": "continued 100 mg q.d., week 2", "value": 0.9, "unit": "IU/L"}, {"measurement": "Study 1 - ALT Mean percentage CFB", "setting": "continued 100 mg q.d., week 2", "value": 8.8, "unit": "%"}, {"measurement": "Study 1 - ALT Mean CFB", "setting": "continued 100 mg q.d., week 4", "value": 0.6, "unit": "IU/L"}, {"measurement": "Study 1 - ALT Mean percentage CFB", "setting": "continued 100 mg q.d., week 4", "value": 9.1, "unit": "%"}, {"measurement": "Study 1 - ALT Mean CFB", "setting": "continued 100 mg q.d., week 8", "value": 1.7, "unit": "IU/L"}, {"measurement": "Study 1 - ALT Mean percentage CFB", "setting": "continued 100 mg q.d., week 8", "value": 15.1, "unit": "%"}, {"measurement": "Study 1 - ALT Mean CFB", "setting": "continued 100 mg q.d., week 12", "value": 1.6, "unit": "IU/L"}, {"measurement": "Study 1 - ALT Mean percentage CFB", "setting": "continued 100 mg q.d., week 12", "value": 15.6, "unit": "%"}, {"measurement": "Study 1 - ALT Mean CFB", "setting": "continued 100 mg q.d., week 16", "value": 0.7, "unit": "IU/L"}, {"measurement": "Study 1 - ALT Mean percentage CFB", "setting": "continued 100 mg q.d., week 16", "value": 9.5, "unit": "%"}, {"measurement": "Study 1 - ALT Mean CFB", "setting": "continued 100 mg q.d., week 20", "value": 1.8, "unit": "IU/L"}, {"measurement": "Study 1 - ALT Mean percentage CFB", "setting": "continued 100 mg q.d., week 20", "value": 19.8, "unit": "%"}, {"measurement": "Study 1 - ALT Mean CFB", "setting": "continued 100 mg q.d., week 24", "value": 5.1, "unit": "IU/L"}, {"measurement": "Study 1 - ALT Mean percentage CFB", "setting": "continued 100 mg q.d., week 24", "value": 39.5, "unit": "%"}, {"measurement": "Study 1 - ALT Mean CFB", "setting": "continued 200 mg q.d., week 1", "value": 2.3, "unit": "IU/L"}, {"measurement": "Study 1 - ALT Mean percentage CFB", "setting": "continued 200 mg q.d., week 1", "value": 11.4, "unit": "%"}, {"measurement": "Study 1 - ALT Mean CFB", "setting": "continued 200 mg q.d., week 2", "value": 1.4, "unit": "IU/L"}, {"measurement": "Study 1 - ALT Mean percentage CFB", "setting": "continued 200 mg q.d., week 2", "value": 15.5, "unit": "%"}, {"measurement": "Study 1 - ALT Mean CFB", "setting": "continued 200 mg q.d., week 4", "value": 1.1, "unit": "IU/L"}, {"measurement": "Study 1 - ALT Mean percentage CFB", "setting": "continued 200 mg q.d., week 4", "value": 15.1, "unit": "%"}, {"measurement": "Study 1 - ALT Mean CFB", "setting": "continued 200 mg q.d., week 8", "value": 3.9, "unit": "IU/L"}, {"measurement": "Study 1 - ALT Mean percentage CFB", "setting": "continued 200 mg q.d., week 8", "value": 31.1, "unit": "%"}, {"measurement": "Study 1 - ALT Mean CFB", "setting": "continued 200 mg q.d., week 12", "value": 3.4, "unit": "IU/L"}, {"measurement": "Study 1 - ALT Mean percentage CFB", "setting": "continued 200 mg q.d., week 12", "value": 33.9, "unit": "%"}]}]}
